Reference: patent publication US20030158204A1, “Diamino phenothiazine derivatives and composition comprising same” (priority 2000, published 2003)

How the values were obtained:
[1] = Hydrophilicity / water solubility; assay type: physicochemical; conditions: qualitative
Procedure: These derivatives more or less have the properties of methylene blue, are hydrosoluble, active by the enteral and parenteral route (IV, SC, etc.) and they never give rise to acute or chronic toxicity nor undesirable effects, at doses comprised between 0.05 mg/Kg and 40 mg/Kg.

[2] = Half life of the compound; conditions: qualitative
[3] = tested on: pernicious attacks resistant to quinine (malaria); conditions: IV route; cited from earlier work
[4] = used externally and internally; cited from earlier work

Row | Compound | hydrophilicity [1] | half life [2] | activity on pernicious attacks resistant to quinine [3] | antiseptic activity [4]
1 | CNc1ccc2nc3c(C)cc(N(C)C)cc3[s+]c2c1C [Example 1, 4-5 dimethyl-7-(dimethylamino)-3(methylimino)-3H phenothiazine] | decreased hydrophilicity |  |  | 
2 | CNc1ccc2nc3c(Cl)cc(N(C)C)cc3[s+]c2c1C [Example 2] | more hydrophilic than the reference daughter molecule | considerably increases the half life |  | 
3 | CNc1ccc2nc3c(O)cc(N(C)C)cc3[s+]c2c1O [Example 4] | very hydrophilic | short half life |  | 
4 | CN(C)c1ccc2nc3ccc(=[N+](C)C)cc-3sc2c1 [Methylene blue, methylene blue] |  |  | active | moderate
